Source: ChEMBL document CHEMBL2434918, “QM-polarized ligand docking accurately predicts the trend in binding affinity of a series of arylmethylene quinuclidine-like derivatives at the α4β2 and α3β4 nicotinic acetylcholine receptors (nAChRs)” (Bioorg Med Chem Lett, 2013)

Tests used:
[1] = target: T1, Neuronal acetylcholine receptor; alpha4/beta2 (Homo sapiens, UniProt P17787+P43681); test: Displacement of [3H]nicotine from human alpha4beta2 nAChR expressed in human SH-EP1 cell membranes after 2 hrs by liquid scintillation counting analysis
[2] = target: T1, Neuronal acetylcholine receptor; alpha4/beta2; test: Agonist activity at human alpha4beta2 nAChR expressed in human SH-EP1 cells assessed as induction of intracellular Ca2+ influx by FLIPR assay relative to nicotine; assay type: cell-based
[3] = target: T1, Neuronal acetylcholine receptor; alpha4/beta2; test: Agonist activity at human alpha4beta2 nAChR expressed in human SH-EP1 cells assessed as induction of intracellular Ca2+ influx by FLIPR assay; assay type: cell-based
[4] = target: T1, Neuronal acetylcholine receptor; alpha4/beta2; test: Agonist activity at human alpha4beta2 nAChR expressed in human SH-EP1 cells assessed as induction of electrophysiological response at 0.1 uM by patch clamp method relative to acetylcholine; assay type: cell-based
[5] = target: T1, Neuronal acetylcholine receptor; alpha4/beta2; test: Agonist activity at human alpha4beta2 nAChR expressed in human SH-EP1 cells assessed as induction of electrophysiological response at 1 uM by patch clamp method relative to acetylcholine; assay type: cell-based
[6] = target: T1, Neuronal acetylcholine receptor; alpha4/beta2; test: Agonist activity at human alpha4beta2 nAChR expressed in human SH-EP1 cells assessed as induction of electrophysiological response at 10 uM by patch clamp method relative to acetylcholine; assay type: cell-based

T1 sequence (P17787 whole entry): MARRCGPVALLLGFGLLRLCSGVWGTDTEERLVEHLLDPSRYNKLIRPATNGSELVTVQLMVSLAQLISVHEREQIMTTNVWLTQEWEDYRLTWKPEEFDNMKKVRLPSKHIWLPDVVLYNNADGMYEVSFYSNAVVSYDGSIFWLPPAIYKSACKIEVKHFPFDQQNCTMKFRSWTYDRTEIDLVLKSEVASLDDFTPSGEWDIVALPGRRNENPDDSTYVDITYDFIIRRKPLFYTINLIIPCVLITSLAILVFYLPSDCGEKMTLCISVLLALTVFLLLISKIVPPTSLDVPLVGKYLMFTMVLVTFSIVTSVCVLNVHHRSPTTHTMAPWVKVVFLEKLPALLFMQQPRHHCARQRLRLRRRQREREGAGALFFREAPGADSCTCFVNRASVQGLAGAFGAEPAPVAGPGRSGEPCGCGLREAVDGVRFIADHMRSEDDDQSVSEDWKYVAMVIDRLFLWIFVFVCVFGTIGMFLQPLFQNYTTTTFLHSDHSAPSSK
T1 sequence (P43681 whole entry): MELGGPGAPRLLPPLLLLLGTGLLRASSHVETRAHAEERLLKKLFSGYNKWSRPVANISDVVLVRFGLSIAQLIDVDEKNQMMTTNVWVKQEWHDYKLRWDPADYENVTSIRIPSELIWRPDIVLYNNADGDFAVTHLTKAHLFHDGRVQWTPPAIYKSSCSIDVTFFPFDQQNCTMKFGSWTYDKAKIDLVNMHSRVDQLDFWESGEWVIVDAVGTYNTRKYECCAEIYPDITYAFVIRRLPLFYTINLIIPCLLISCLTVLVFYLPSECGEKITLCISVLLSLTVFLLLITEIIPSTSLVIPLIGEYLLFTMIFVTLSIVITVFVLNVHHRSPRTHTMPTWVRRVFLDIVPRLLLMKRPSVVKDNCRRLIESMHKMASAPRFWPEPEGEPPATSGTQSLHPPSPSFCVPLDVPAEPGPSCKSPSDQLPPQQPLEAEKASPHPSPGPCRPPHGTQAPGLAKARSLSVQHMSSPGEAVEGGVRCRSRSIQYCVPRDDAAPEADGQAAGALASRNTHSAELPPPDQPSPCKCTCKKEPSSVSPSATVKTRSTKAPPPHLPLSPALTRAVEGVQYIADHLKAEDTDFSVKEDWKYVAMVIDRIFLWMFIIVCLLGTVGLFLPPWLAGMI

Row | SMILES | Ki [1] [µM] | Emax [2] [%] | EC50 [3] [µM] | Activity [4] [%] | Activity [5] [%] | Activity [6] [%]
1 | C(=C1/CN2CCC1CC2)/c1cccnc1 | 0.006 | 18 | > 10 | 4 | 11 | 24
2 | N#C/C(=C1\CN2CCC1CC2)c1ccccc1 | 1.1 | < 5 | – | 3 | 2 | 2
3 | C(=C1/CN2CCC1CC2)/c1ccccc1 | 1.6 | 11 | > 10 | 2 | 3 | 2
4 | c1ccc(C(c2ccccc2)[N+]23CCN(CC2)CC3)cc1 | > 10 | < 5 | – | 1 | 3 | 1
5 | C(CN1CCCCC1)=C(c1ccccc1)c1ccccc1 | 0.16 | 9 | – | 0.8 | 2 | 1
6 | c1ccc(C(=C2CN3CCC2CC3)c2ccccc2)cc1 | 0.09 | 6 | – | 0.6 | 2 | 2
7 | c1ccc(C[N+]23CCC(CC2)C(=C(c2ccccc2)c2ccccc2)C3)cc1 | 7 | < 5 | – | 2 | 2 | 1
